How the values were obtained:
human NK1 receptor = molecular target: T1, human NK1 receptor (Homo sapiens, UniProt P25103); experiment: FLIPR assay, inhibition of human NK1 receptor activation (intracellular Ca2+); format: cell-based; conditions: CHO cells with human NK1 receptor, agonist Substance P, read-out: pKB (NK1) (converted)
T1 construct: expressed in transfected cells; host or cells: CHO cells (AstraZeneca R&D Wilmington), cDNA in pRcCMV
Procedure: (§1) Chinese Hamster Ovary (CHO) K1 cells (obtained from ATCC) were stably transfected with the human NK2 receptor (hNK2R cDNA in pRc/CMV, Invitrogen) or the human NK3 receptor (hNK3R in pcDNA 3.1/Hygro (+)/IRES/CD8, Invitrogen vector modified at AstraZeneca EST-Bio UK, Alderley Park). The cells were transfected with the cationic lipid reagent LIPOFECTAMINE™ (Invitrogen) and selection was performed with Geneticin (G418, Invitrogen) at 1 mg/ml for the hNK2R transfected cells and with Hygromycin (Invitrogen) at 500 μg/ml for the hNK3R transfected cells. Single cell clones were collected by aid of Fluorescence Activated Cell Sorter (FACS), tested for functionality in a FLIPR assay (see below), expanded in culture and cryopreserved for future use. CHO cells stably transfected with human NK1 receptors originates from AstraZeneca R&D, Wilmington USA. Human NK1 receptor cDNA (obtained from RNA-PCR from lung tissue) was subcloned into pRcCMV (Invitrogen). Transfection was performed by Calcium Phosphate and selection with 1 mg/ml G418. […]
(§2) The activity of a compound of the invention to inhibit NK1/NK2/NK3 receptor activation measured as NK1/NK2/NK3 receptor mediated increase in intracellular Ca^2+ was assessed by the following procedure: […]

CYP3A4 = CYP3A4 (Homo sapiens, UniProt P08684); experiment: CYP3A4 inhibition assay (Bapiro et al.); format: in vitro ADME
Sequence of CYP3A4 (P08684 whole entry): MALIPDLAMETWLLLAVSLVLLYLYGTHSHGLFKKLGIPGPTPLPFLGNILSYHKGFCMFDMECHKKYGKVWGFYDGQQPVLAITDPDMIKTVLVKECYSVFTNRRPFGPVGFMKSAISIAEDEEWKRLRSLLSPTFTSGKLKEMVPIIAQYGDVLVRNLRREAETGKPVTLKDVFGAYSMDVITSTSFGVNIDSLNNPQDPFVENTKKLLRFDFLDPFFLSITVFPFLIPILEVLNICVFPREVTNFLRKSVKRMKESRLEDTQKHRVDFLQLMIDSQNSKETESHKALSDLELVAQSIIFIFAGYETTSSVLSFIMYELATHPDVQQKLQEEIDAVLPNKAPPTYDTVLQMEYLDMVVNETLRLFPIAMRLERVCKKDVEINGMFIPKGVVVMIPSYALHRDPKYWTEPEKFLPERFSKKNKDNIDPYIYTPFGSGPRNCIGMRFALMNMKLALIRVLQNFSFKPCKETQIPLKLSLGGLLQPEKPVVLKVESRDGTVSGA
Description: It is well known that severe problems such as toxicity may occur if plasma levels of one medication are altered by the co-administration of another drug. […] CYP (cytochrome P450) 3A4 is the most important enzyme in the human liver as a majority of oxidised drugs have been biotransformed by this enzyme. Accordingly, it is undesirable to employ a medication having a significant degree of such liver enzyme inhibiting properties. […] Thus, there is a need for a novel NK receptor antagonist with improved pharmacokinetic properties. The present invention provides compounds with CYP3A4 enzyme inhibiting properties at a low level, as comparatively high IC50 values are obtained in a CYP3A4 inhibiting assay. Said method for determining CYP3A4 inhibition is described in Bapiro et al; Drug Metab. Dispos. 29, 30-35 (2001).
The IC50 values tested according to Bapiro et al; Drug Metab. Dispos. 29, 30-35 (2001) were generally greater than 2 μM.

[1] = molecular target: hERG-encoded potassium channel (Homo sapiens, UniProt Q12809); experiment: Activity against hERG (planar-array-based voltage clamp, Kiss et al.); format: cell-based
Sequence of hERG-encoded potassium channel (Q12809 whole entry): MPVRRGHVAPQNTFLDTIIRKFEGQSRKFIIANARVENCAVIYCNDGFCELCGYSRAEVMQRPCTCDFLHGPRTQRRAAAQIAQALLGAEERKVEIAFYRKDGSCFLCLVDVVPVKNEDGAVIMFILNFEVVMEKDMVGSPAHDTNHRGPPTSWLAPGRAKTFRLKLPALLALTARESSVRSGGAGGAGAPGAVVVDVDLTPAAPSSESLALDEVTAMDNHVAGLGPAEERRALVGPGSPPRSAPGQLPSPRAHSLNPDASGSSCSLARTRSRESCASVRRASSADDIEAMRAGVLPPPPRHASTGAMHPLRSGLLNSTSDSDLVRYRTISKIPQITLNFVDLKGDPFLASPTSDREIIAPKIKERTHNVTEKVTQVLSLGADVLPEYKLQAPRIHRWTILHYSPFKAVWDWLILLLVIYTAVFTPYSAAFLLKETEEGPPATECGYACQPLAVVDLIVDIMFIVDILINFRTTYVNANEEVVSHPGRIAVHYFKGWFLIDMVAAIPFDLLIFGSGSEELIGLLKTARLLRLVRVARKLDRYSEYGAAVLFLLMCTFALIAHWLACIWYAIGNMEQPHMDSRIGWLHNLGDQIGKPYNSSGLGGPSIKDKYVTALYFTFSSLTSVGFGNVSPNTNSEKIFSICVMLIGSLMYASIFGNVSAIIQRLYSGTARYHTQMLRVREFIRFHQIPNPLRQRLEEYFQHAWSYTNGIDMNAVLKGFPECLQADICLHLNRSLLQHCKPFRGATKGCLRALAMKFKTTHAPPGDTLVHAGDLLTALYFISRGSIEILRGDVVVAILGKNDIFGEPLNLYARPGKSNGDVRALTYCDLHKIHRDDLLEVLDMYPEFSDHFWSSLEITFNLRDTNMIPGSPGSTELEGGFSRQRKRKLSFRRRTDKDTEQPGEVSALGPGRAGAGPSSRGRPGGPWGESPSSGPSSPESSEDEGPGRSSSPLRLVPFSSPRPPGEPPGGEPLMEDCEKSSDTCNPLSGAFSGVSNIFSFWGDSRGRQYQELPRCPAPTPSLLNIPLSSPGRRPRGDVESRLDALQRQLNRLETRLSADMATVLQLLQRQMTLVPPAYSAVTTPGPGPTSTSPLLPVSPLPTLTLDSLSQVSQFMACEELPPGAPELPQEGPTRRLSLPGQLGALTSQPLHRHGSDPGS
Description: The activity of compounds according to formula I against the hERG-encoded potassium channel can be determined according to Kiss L, et al. Assay Drug Dev Technol. 1 (2003), 127-35: “High throughput ion-channel pharmacology: planar-array-based voltage clamp”.

human NK2 receptor = molecular target: T2, human NK2 receptor (Homo sapiens, UniProt P21452); experiment: FLIPR assay, inhibition of human NK2 receptor activation (intracellular Ca2+); format: cell-based; conditions: CHO cells with human NK2 receptor, agonist NKA, read-out: pKB (NK2) (converted)
T2 construct: expressed in transfected cells; host or cells: CHO-K1 cells (ATCC), hNK2R cDNA in pRc/CMV
T2 sequence (P21452 1-398): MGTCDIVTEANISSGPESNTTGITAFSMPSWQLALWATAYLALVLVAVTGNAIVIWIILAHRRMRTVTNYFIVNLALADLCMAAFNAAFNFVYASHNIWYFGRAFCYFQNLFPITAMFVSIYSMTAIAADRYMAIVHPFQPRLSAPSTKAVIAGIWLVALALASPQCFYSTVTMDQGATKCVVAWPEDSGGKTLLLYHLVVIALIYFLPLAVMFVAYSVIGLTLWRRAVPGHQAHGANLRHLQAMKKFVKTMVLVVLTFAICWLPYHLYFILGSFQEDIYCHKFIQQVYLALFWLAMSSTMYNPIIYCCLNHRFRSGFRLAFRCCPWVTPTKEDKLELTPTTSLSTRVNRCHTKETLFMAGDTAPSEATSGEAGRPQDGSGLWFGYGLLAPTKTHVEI
Procedure: as §1, §2

[2] = Metabolic stability in liver microsomes (HLM); format: in vitro ADME; conditions: pH 7.4; human liver microsomes
Procedure: Stability against human microsomal metabolism in vitro is indicative of stability towards metabolism in vivo.
The metabolic stability of compounds according to formula I can be determined as described below: […]
The rate of biotransformation can be measured as either metabolite(s) formation or the rate of disappearance of the parent compound. The experimental design involves incubation of low concentrations of substrate (usually 1.0 μM) with liver microsomes (usually 0.5 mg/ml) and taking out aliquots at varying time points (usually 0, 5, 10, 15, 20, 30, 40 min.). The test compound is usually dissolved in DMSO. The DMSO concentration in the incubation mixture is usually 0.1% or less since more solvent can drastically reduce the activities of some CYP450s. Incubations are done in 100 mM potassium phosphate buffer, pH 7.4 and at 37° C. Acetonitrile or methanol is used to stop the reaction.

human NK3 receptor = molecular target: T3, human NK3 receptor (Homo sapiens, UniProt P29371); experiment: FLIPR assay, inhibition of human NK3 receptor activation (intracellular Ca2+); format: cell-based; conditions: CHO cells with human NK3 receptor, agonist Pro-7-NKB, read-out: pKB (NK3) (converted)
T3 construct: expressed in transfected cells; host or cells: CHO-K1 cells (ATCC), hNK3R in pcDNA 3.1/Hygro (+)/IRES/CD8
T3 sequence (P29371 1-465): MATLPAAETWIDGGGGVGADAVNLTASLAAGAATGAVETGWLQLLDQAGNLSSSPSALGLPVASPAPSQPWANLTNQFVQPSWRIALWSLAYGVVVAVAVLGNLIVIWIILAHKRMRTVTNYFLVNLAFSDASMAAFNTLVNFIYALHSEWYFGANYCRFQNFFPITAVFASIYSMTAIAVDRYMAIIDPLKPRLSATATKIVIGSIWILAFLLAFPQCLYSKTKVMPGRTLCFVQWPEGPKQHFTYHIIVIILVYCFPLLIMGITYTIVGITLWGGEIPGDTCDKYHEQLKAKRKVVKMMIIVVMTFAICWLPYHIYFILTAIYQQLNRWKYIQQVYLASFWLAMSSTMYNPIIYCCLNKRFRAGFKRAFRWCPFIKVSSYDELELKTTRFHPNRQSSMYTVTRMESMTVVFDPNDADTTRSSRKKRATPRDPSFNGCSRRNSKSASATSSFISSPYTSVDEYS
Procedure: as §1, §2

[3] = molecular target: T4, Human Neurokinin-2 (NK2) Receptor (Homo sapiens, UniProt P21452); conditions: Bioorg. Med. Chem. Lett. (2003), 13, 2211-2215; cited from earlier work
T4 sequence (P21452 1-398): T2 sequence (P21452 1-398)

T1 sequence (P25103 whole entry): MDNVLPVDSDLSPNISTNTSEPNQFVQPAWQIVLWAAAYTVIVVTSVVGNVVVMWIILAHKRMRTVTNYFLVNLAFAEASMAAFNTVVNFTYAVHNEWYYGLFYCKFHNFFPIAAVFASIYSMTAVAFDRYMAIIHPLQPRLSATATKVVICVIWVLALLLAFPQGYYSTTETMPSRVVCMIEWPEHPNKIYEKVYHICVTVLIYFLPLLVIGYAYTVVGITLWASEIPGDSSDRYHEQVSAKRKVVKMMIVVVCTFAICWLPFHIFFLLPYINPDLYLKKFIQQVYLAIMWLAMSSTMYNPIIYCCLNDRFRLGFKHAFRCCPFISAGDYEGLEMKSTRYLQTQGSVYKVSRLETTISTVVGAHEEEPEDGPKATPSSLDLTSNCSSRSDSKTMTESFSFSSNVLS

| Compound | Kb (human NK1 receptor) [nM] | IC50 (CYP3A4) [nM] | IC50 [1] [nM] | Kb (human NK2 receptor) [nM] | microsomal CLint at 1 μM [2] [µL/min/mg] | Kb (human NK3 receptor) [nM] | functional NK2 receptor antagonism [3] |
| --- | --- | --- | --- | --- | --- | --- | --- |
| CN(C[C@@H](CCN1CC(N2CCOC[C@H]2CCO)C1)c1ccc(F)cc1)C(=O)c1cc(Br)cc(C(F)(F)F)c1 [Ex 5, 3-Bromo-N-((2S)-2-(4-fluorophenyl)-4-{3-[(3R)-3-(2-hydroxyethyl)morpholin-4-yl]azetidin-1-yl}butyl)-N-methyl-5-(trifluoromethyl)benzamide] | 7.94 | 19200 | 18800 | 25.1 | 40.7 | 20 |  |
| CN(CC(CCN1CC(N2CCOCC2)C1)c1ccc(Cl)c(Cl)c1)C(=O)c1ccccc1 (stereo not shown) [N-[2-(3,4-dichlorophenyl)-4-(3-morpholin-4-ylazetidin-1-yl)butyl]-N-methylbenzamide] |  |  |  |  |  |  | functional NK2 receptor antagonistic properties |

— patent US20100069346A1, “New Azetidine Derivatives as Neurokinin Receptor Antagonists for the Treatment of Gastrointestinal Diseases” (priority 2005, published 2010)
